Experimental data as given in patent US20110230419A1, “IAP BINDING COMPOUNDS” (Nuevolution A/S, priority 2008, published 2011).
Where a SMILES comes first, the peptide text is derived from it. [ ]: non-standard residue; d: D form. Pro(cis-4-Ph) = O=C(O)[C@@H]1C[C@H](c2ccccc2)CN1; Phe(3-CN) = N#Cc1cccc(C[C@H](N)C(=O)O)c1; Ala(2-furyl) = N[C@@H](Cc1ccco1)C(=O)O; Abu = CC[C@H](N)C(=O)O

target: T1, XIAP BIR3 (Homo sapiens, UniProt P98170); experiment: Biotinylated BIR3 XIAP domain Alphascreen assay; set-up: biotinylated XIAP BIR3; biotin (biotinylated); conditions: biotinylated XIAP BIR3, FITC-labeled IAP-binding molecule, Streptavidin Donor / Anti-FITC Acceptor Beads, incubation 2 hours; concentration reducing alphascreen signal to half of maximum
Description: Biotinylated BIR3 XIAP Domain Alphascreen Assay Compounds were incubated with Streptavidin Donor Beads, Anti-FITC Acceptor Beads, biotinylated XIAP BIR3 and a FITC-labeled IAP-binding molecule. Following incubation for 2 hours the wells were read in an Envision reader. IC50s correspond to the concentration of compound which reduces the alphascreen signal to half of the maximum.
Target sequence in this assay (P98170 241-356 limits assumed): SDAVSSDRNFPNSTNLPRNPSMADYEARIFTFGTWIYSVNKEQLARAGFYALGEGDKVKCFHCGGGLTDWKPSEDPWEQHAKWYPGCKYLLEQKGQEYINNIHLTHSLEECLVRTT

Structure (SMILES)	IC50 [nM]
C[C@H](N)C(=O)N[C@@H](Cc1cccc(C(N)=O)c1)C(=O)N1CC(C(=O)NC2CCc3ccccc32)C1c1ccccc1 (stereo in doubt) [Example 24, 1-((S)-2-((S)-2-aminopropanamido)-3-(3-carbamoylphenyl)propanoyl)-N—((R)-2,3-dihydro-1H-inden-1-yl)-2-phenylazetidine-3-carboxamide]	0.1 to 100
CC(N)c1ccc(C(=O)N2C[C@@H](c3ccccc3)C[C@H]2CN2CC[C@H](c3ccccc3)C2)o1 (stereo partly drawn) [Example 2, (5-(1-Aminoethyl)furan-2-yl)((2S,4R)-4-phenyl-2-(((R)-3-phenylpyrrolidin-1-yl)methyl)pyrrolidin-1-yl)methanone]	100 to 1000
CNC(=O)[C@@H]1C[C@H](c2ccccc2)CN1C(=O)[C@@H]1C[C@H](c2ccccc2)CN1C(=O)[C@H](Cc1ccco1)NC(=O)[C@H](C)N [Example 15] (H-A[Ala(2-furyl)][Pro(cis-4-Ph)][Pro(cis-4-Ph)]-NHMe)	0.1 to 100
CC[C@H](NC(=O)[C@H](C)N)C(=O)N1C[C@@H](c2ccccc2)C[C@H]1C(=O)N1C[C@@H](c2ccccc2)C[C@H]1C(=O)NC [Example 16, (2S,4R)-1-((3R,5S)-1-((S)-2-((S)-2-aminopropanamido)butanoyl)-3-phenylpyrrolidine-5-carbonyl)-N-methyl-4-phenylpyrrolidine-2-carboxamide] (H-A[Abu][Pro(cis-4-Ph)][Pro(cis-4-Ph)]-NHMe)	0.1 to 100
C[C@@H](N)C(=O)N[C@@H](Cc1ccc(C(N)=O)cc1)C(=O)N1C[C@@H](c2ccccc2)C[C@H]1C(=O)N[C@@H]1CCc2ccccc21 [Example 17, (2S,4R)-1-((S)-2-((R)-2-aminopropanamido)-3-(4-carbamoylphenyl)propanoyl)-N—((R)-2,3-dihydro-1H-inden-1-yl)-4-phenylpyrrolidine-2-carboxamide]	0.1 to 100
C[C@H](N)C(=O)N[C@@H](Cc1cccc(C(N)=O)c1)C(=O)N1CC(c2ccccc2)C1C(=O)N[C@@H]1CCc2ccccc21 (stereo partly drawn) [Example 18, 1-((S)-2-((S)-2-aminopropanamido)-3-(3-carbamoylphenyl)propanoyl)-N—((R)-2,3-dihydro-1H-inden-1-yl)-3-phenylazetidine-2-carboxamide]	0.1 to 100
C[C@H](N)C(=O)N[C@@H](Cc1cccc(C#N)c1)C(=O)N1C[C@@H](c2ccccc2)C[C@H]1C(=O)N[C@@H]1CCc2ccccc21 [Example 19, (2S,4R)-1-((S)-2-((S)-2-aminopropanamido)-3-(3-cyanophenyl)propanoyl)-N—((R)-2,3-dihydro-1H-inden-1-yl)-4-phenylpyrrolidine-2-carboxamide]	0.1 to 100
CNC(=O)[C@@H]1C[C@H](c2ccccc2)CN1C(=O)[C@@H]1C[C@H](c2ccccc2)CN1C(=O)[C@H](Cc1cccc(C#N)c1)NC(=O)[C@H](C)N [Example 20, (2S,4R)-1-((3R,5S)-1-((S)-2-((S)-2-aminopropanamido)-3-(3-cyanophenyl)propanoyl)-3-phenylpyrrolidine-5-carbonyl)-N-methyl-4-phenylpyrrolidine-2-carboxamide] (H-A[Phe(3-CN)][Pro(cis-4-Ph)][Pro(cis-4-Ph)]-NHMe)	0.1 to 100
CNC(=O)[C@@H]1C[C@H](c2ccccc2)CN1C(=O)[C@@H]1C[C@H](c2ccccc2)CN1C(=O)C(Cn1cncn1)NC(=O)[C@H](C)N (stereo partly drawn) [Example 21, (2S,4R)-1-((3R,5S)-1-(2-((S)-2-aminopropanamido)-3-(1H-1,2,4-triazol-1-yl)propanoyl)-3-phenylpyrrolidine-5-carbonyl)-N-methyl-4-phenylpyrrolidine-2-carboxamide]	0.1 to 100
CC[C@H](NC)C(=O)N[C@@H](Cc1cccc(C#N)c1)C(=O)N1C[C@@H](c2ccccc2)C[C@H]1CN1CC[C@H](c2ccccc2)C1 [Example 22, (S)—N—((S)-3-(3-cyanophenyl)-1-oxo-1-((2S,4R)-4-phenyl-2-(((R)-3-phenylpyrrolidin-1-yl)methyl)pyrrolidin-1-yl)propan-2-yl)-2-(methylamino)butanamide]	0.1 to 100
C[C@@H](N)C(=O)N[C@@H](Cc1cccc(C(N)=O)c1)C(=O)N1C[C@@H](c2ccccc2)C[C@H]1C(=O)N[C@@H]1CCc2ccccc21 [Example 23, (2S,4R)-1-((S)-2-((R)-2-aminopropanamido)-3-(3-carbamoylphenyl)propanoyl)-N—((R)-2,3-dihydro-1H-inden-1-yl)-4-phenylpyrrolidine-2-carboxamide]	0.1 to 100

Results, then the compound that gave them:

IC50 [nM]	Structure (SMILES)
0.1 to 100	CC(N)c1ccc(C(=O)N2C[C@@H](c3ccccc3)C[C@H]2C(=O)N2CC[C@H](c3ccccc3)C2)o1 (stereo partly drawn) [Example 5, [5-(1-Amino-ethyl)-furan-2-yl]-[(2S,4R)-4-phenyl-2-((R)-3-phenyl-pyrrolidine-1-carbonyl)-pyrrolidin-1-yl]-methanone]
100 to 1000	CC(N)c1cccc(C(=O)N2C[C@@H](c3ccccc3)C[C@H]2C(=O)N2CC[C@H](c3ccccc3)C2)c1 (stereo partly drawn) [Example 6, [3-(1-Amino-ethyl)-phenyl]-[(2S,4R)-4-phenyl-2-((R)-3-phenyl-pyrrolidine-1-carbonyl)-pyrrolidin-1-yl]-methanone]
> 1000	C[C@@H](N)C1CCCC(C(=O)N2C[C@@H](c3ccccc3)C[C@H]2C(=O)N2CC[C@H](c3ccccc3)C2)N1 (stereo partly drawn) [Example 7, [6-((R)-1-Amino-ethyl)-piperidin-2-yl]-[(2S,4R)-4-phenyl-2-((R)-3-phenyl-pyrrolidine-1-carbonyl)-pyrrolidin-1-yl]-methanone]
100 to 1000	C[C@H](N)C1CCCC(C(=O)N2C[C@@H](c3ccccc3)C[C@H]2C(=O)N2CC[C@H](c3ccccc3)C2)N1 (stereo partly drawn) [Example 8, [6-((S)-1-Amino-ethyl)-piperidin-2-yl]-[(2S,4R)-4-phenyl-2-((R)-3-phenyl-pyrrolidine-1-carbonyl)-pyrrolidin-1-yl]-methanone]

target: T1, XIAP BIR3; experiment: HIS-tagged BIR3 XIAP domain Alphascreen assay; set-up: HIS-tagged XIAP BIR3 (RnD systems); purchased RnD systems; conditions: HIS-tagged XIAP BIR3 (RnD systems), biotin-labeled IAP-binding molecule, Streptavidin Donor / Ni-NTA Acceptor Beads, incubation 2 hours; concentration reducing alphascreen signal to half of maximum
Description: HIS-Tagged BIR3 XIAP Domain Alphascreen Assay
Compounds were incubated with Streptavidin Donor Beads, Ni-NTA Acceptor Beads, HIS-tagged XIAP BIR3 (RnD systems) and a biotin-labeled IAP-binding molecule. Following incubation for 2 hours the wells were read in an Envision reader. IC50s correspond to the concentration of compound which reduces the alphascreen signal to half of the maximum.
Target sequence in this assay (P98170 252-356 limits assumed): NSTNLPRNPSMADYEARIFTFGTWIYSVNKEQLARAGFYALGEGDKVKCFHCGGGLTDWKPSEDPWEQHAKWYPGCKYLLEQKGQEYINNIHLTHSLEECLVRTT

Structure (SMILES)	IC50 [nM]
CNC(C)c1ccc(C(=O)N2C[C@@H](c3ccc(F)cc3)C[C@H]2C(=O)N2CCC(c3ccc(F)cc3)C2)o1 (stereo partly drawn) [Example 9, {(2S,4R)-4-(4-Fluoro-phenyl)-2-[3-(4-fluoro-phenyl)-pyrrolidine-1-carbonyl]-pyrrolidin-1-yl}-[5-(1-methylamino-ethyl)-furan-2-yl]-methanone]	0.1 to 100
CNC(C)c1ccc(C(=O)N2C[C@@H](c3ccccc3)C[C@H]2CN2CC[C@H](c3ccccc3)C2)o1 (stereo partly drawn) [Example 10, (5-(1-(methylamino)ethyl)furan-2-yl)((2S,4R)-4-phenyl-2-(((R)-3-phenylpyrrolidin-1-yl)methyl)pyrrolidin-1-yl)methanone]	100 to 1000
O=C(N[C@@H]1CCc2ccccc21)[C@@H]1C[C@@H](C2CCCCC2)CN1C(=O)C1CC2(CCNCC2)CN1 (stereo partly drawn) [Example 13, (2S,4S)-4-Cyclohexyl-1-(2,8-diaza-spiro[4.5]decane-3-carbonyl)-pyrrolidine-2-carboxylic acid (R)-indan-1-ylamide]	100 to 1000
O=C(N[C@H](C(=O)N[C@@H]1CCc2ccccc21)C1CCCCC1)C1CC2(CCNCC2)CN1 (stereo partly drawn) [Example 14, 2,8-Diaza-spiro[4.5]decane-3-carboxylic acid [(S)-cyclohexyl-((R)-indan-1-ylcarbamoyl)-methyl]-amide]	100 to 1000

More lines, now with the values ahead:

IC50 [nM]	Structure (SMILES)
0.1 to 100	CNC(C)c1ccc(C(=O)N2C[C@@H](c3ccccc3)C[C@H]2C(=O)N2CC[C@H](c3ccccc3)C2)o1 (stereo partly drawn) [Example 1, [5-(1-Methylamino-ethyl)-furan-2-yl]-[(2S,4R)-4-phenyl-2-((R)-3-phenyl-pyrrolidine-1-carbonyl)-pyrrolidin-1-yl]-methanone]
100 to 1000	CNC(C)c1cccc(C(=O)N2C[C@@H](c3ccccc3)C[C@H]2C(=O)N2CC[C@H](c3ccccc3)C2)c1 (stereo partly drawn) [Example 3, [3-(1-Methylamino-ethyl)-phenyl]-[(2S,4R)-4-phenyl-2-((R)-3-phenyl-pyrrolidine-1-carbonyl)-pyrrolidin-1-yl]-methanone]
100 to 1000	CNC(C)c1cccc(C(=O)N2C[C@@H](c3ccccc3)C[C@H]2CN2CC[C@H](c3ccccc3)C2)c1 (stereo partly drawn) [Example 11, (3-(1-(methylamino)ethyl)phenyl)((2S,4R)-4-phenyl-2-(((R)-3-phenylpyrrolidin-1-yl)methyl)pyrrolidin-1-yl)methanone]
